In patent US9814759B2, “Pharmaceutical composition comprising recombinant hemoglobin protein or subunit-based therapeutic agent for cancer targeting treatment” (Cheer Global Ltd., priority 2014, dated 2017):

How the values were obtained:
[1] = HPLC analysis of disulfide bond cleavage under reducing condition (GSH); type: physicochemical; settings: PBS buffer (pH 7.4), 37° C., GSH 0.4-1000 equiv, 0-2 hrs
From the text: The glutathione (GSH) level is much higher in the cytoplasm of cancer cells (˜1000 equiv) when compared to blood stream (˜1 equiv). A therapeutic drug with a disulfide bond can be cleaved much more easily in the cytoplasm of cancer cells with high concentration of GSH. A high-performance liquid chromatography (HPLC) analysis for the cleavage of model compound (N-(2-mercaptoethyl)benzamide) with disulfide bond under reducing condition is shown in FIG. 12. The cleavage of model compound is observed in PBS buffer (pH 7.4) at 37° C. with different concentration of glutathione (GSH) (0.4-1000 equiv). […] In the present invention, the recombinant hemoglobin protein or recombinant hemoglobin tetramer or dimer or subunit linked with a therapeutic drug (e.g. chemotherapeutic agent, radiotherapeutic agent, anti-cancer protein drug) by a disulfide bond is prepared for cancer treatment.

[2] = native human hemoglobin, comparison value; cited from earlier work
[3] = tested on: liver cancer cells (HepG2); test: Live cell time-lapse microscopy, uptake of fluorescent labeled hemoglobin subunits in cancer cells; type: cell-based; settings: with heme (+) or without heme (−), 0.1% O2, FIG. 10
From the text: The pharmaceutical composition of the present invention comprises recombinant hemoglobin protein or recombinant hemoglobin tetramer or dimer or subunit-based therapeutic agent capable of both targeting and killing the cancer cells. […] The fluorescent labeled recombinant hemoglobin subunits can also enter into the cancer cells (e.g., liver cancer cells, HepG2) and localize in there, and the result is illustrated in FIG. 10. It is expected that the chemically modified recombinant hemoglobin protein or tetramer or dimer or subunit-based therapeutic agent can also kill the cancer cells and progenitor cells/cancer stem cells effectively.
Cancer cells (HepG2) are cultured in DMEM (Invitrogen) with 10% Fetal bovine serum (FBS), 100 U/mL penicillin and 100 μg/mL streptomycin at 37° C. For normoxic condition, cells are incubated with ambient O2 concentration and 5% CO2; for hypoxic condition, cells are incubated with 0.1-0.5% O2 (Quorum FC-7 automatic CO2/O2/N2 gas mixer) and 5% CO2.
Cancer cells (e.g. HepG2 liver cancer cells) are seeded onto glass bottom microwell dishes (MatTek Corporation). Live cells at defined zooms (63×, 20×) are acquired using Zeiss Observer Z1 widefield microscope, equipped with atmospheric/temperature-controlled chamber and motorized stage for multi-positional acquisition. The incubation is performed in an enclosed live cell imaging system purged with 0.1% O2 and 5% CO2 (premixed). Cells are exposed to the fluorescent labeled recombinant hemoglobin subunits (α, β, γ1, γ2); for 15 min prior to the acquisition of images every 3 min for a period of 2 h. Images are deconvolved and compacted into time-lapse movies using the MetaMorph software (Molecular Device).

Row | Molecule | entry into / uptake by liver cancer cells [3] | also measured
1 | O=C(NCCS)c1ccccc1 [model compound, N-(2-mercaptoethyl)benzamide] |  | cleavage of disulfide bond at different GSH levels [1]: better at high concentration of GSH (>50 equiv)
2 | native human hemoglobin: native human hemoglobin, comparison for p50 |  | p50 value (oxygen partial pressure necessary to produce 50 percent saturation of hemoglobin) [2]: 23-30 mm Hg
3 | α: recombinant human hemoglobin monomer α (141 amino acids), with or without heme | can enter into liver cancer cells (HepG2) successfully | 
4 | β: recombinant human hemoglobin monomer β (146 amino acids), with or without heme | can enter into liver cancer cells (HepG2) successfully | 
5 | γ1: recombinant human hemoglobin monomer γ1 (146 amino acids), with or without heme | can enter into liver cancer cells (HepG2) successfully | 
6 | γ2: recombinant human hemoglobin monomer γ2 (146 amino acids), with or without heme | can enter into liver cancer cells (HepG2) successfully | 
